Results reported in ChEMBL document CHEMBL1201862, “PubChem BioAssay data set” (2004).
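Grown in 96-well plates, cells were treated for 48 hours with each compound at five concentrations. Insufficient inhibition: endpoint recorded as highest concentration tested. At the GI50, growth is halved.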 Calls of active or inactive are those of the source. Rule as the data show it: active = GI50 up to about 1.1 µM and inactive = higher.

Key:
Test in all cases: growth of human tumour cells (NCI), 48 h
786-0 = test system: 786-0
A498 = test system: A498
A549 = test system: A549
ACHN = test system: ACHN
CAKI-1 = test system: CAKI-1
CCRF-CEM = test system: CCRF-CEM
COLO 205 = test system: COLO 205
DU-145 = test system: DU-145
EKVX = test system: EKVX
HCT-116 = test system: HCT-116
HCT-15 = test system: HCT-15
HL-60 = test system: HL-60
HOP-62 = test system: HOP-62
HOP-92 = test system: HOP-92
HT-29 = test system: HT-29
Hs-578T = test system: Hs-578T
K562 = test system: K562
KM12 = test system: KM12
LOX IMVI = test system: LOX IMVI
M14 = test system: M14
MCF7 = test system: MCF7
MDA-MB-231 = test system: MDA-MB-231
MDA-MB-435 = test system: MDA-MB-435
MDA-N = test system: MDA-N
MOLT-4 = test system: MOLT-4
Malme-3M = test system: Malme-3M
NCI-H226 = test system: NCI-H226
NCI-H23 = test system: NCI-H23
NCI-H460 = test system: NCI-H460
NCI-H522 = test system: NCI-H522
NCI/ADR-RES = test system: NCI/ADR-RES
OVCAR-3 = test system: OVCAR-3
OVCAR-5 = test system: OVCAR-5
OVCAR-8 = test system: OVCAR-8
PC-3 = test system: PC-3
RPMI-8226 = test system: RPMI-8226
RXF 393 = test system: RXF 393
SF-268 = test system: SF-268
SF-295 = test system: SF-295
SF-539 = test system: SF-539
SK-MEL-28 = test system: SK-MEL-28
SK-MEL-2 = test system: SK-MEL-2
SK-MEL-5 = test system: SK-MEL-5
SK-OV-3 = test system: SK-OV-3
SN12C = test system: SN12C
SNB-19 = test system: SNB-19
SNB-75 = test system: SNB-75
SR = test system: SR
SW-620 = test system: SW-620
T47D = test system: T47D
TK-10 = test system: TK-10
UACC-257 = test system: UACC-257
UACC-62 = test system: UACC-62
UO-31 = test system: UO-31
HCC 2998 = test system: HCC 2998
IGROV-1 = test system: IGROV-1
OVCAR-4 = test system: OVCAR-4
U-251 = test system: U-251

O=C(/C=C\c1ccc(Cl)cc1Cl)c1cccs1
GI50 (786-0): 17.5 µM (inactive) | GI50 (A498): 19.7 µM (inactive) | GI50 (A549): 24.9 µM (inactive) | GI50 (ACHN): 14.7 µM (inactive) | GI50 (CAKI-1): 24.2 µM (inactive) | GI50 (CCRF-CEM): 21.3 µM (inactive) | GI50 (COLO 205): 16.5 µM (inactive) | GI50 (DU-145): 21.3 µM (inactive) | GI50 (EKVX): 16.9 µM (inactive) | GI50 (HCT-116): 9.57 µM (inactive) | GI50 (HCT-15): 14.4 µM | GI50 (HL-60): 37.2 µM (inactive) | GI50 (HOP-62): 24.3 µM (inactive) | GI50 (HOP-92): 26.4 µM (inactive) | GI50 (HT-29): 23.4 µM (inactive) | GI50 (Hs-578T): 24.8 µM (inactive) | GI50 (K562): 21.1 µM (inactive) | GI50 (KM12): 16.3 µM (inactive) | GI50 (LOX IMVI): > 10 µM (inactive) | GI50 (M14): 18.8 µM (inactive) | GI50 (MCF7): 6.89 µM (inactive) | GI50 (MDA-MB-231): 16.7 µM (inactive) | GI50 (MDA-MB-435): 16.6 µM (inactive) | GI50 (MDA-N): 16.6 µM (inactive) | GI50 (MOLT-4): 30.2 µM (inactive) | GI50 (Malme-3M): 21.4 µM (inactive) | GI50 (NCI-H226): 20.7 µM (inactive) | GI50 (NCI-H23): 19.2 µM (inactive) | GI50 (NCI-H460): 23.9 µM (inactive) | GI50 (NCI-H522): 21.2 µM (inactive) | GI50 (NCI/ADR-RES): 30.4 µM (inactive) | GI50 (OVCAR-3): 28.4 µM (inactive) | GI50 (OVCAR-5): 20 µM (inactive) | GI50 (OVCAR-8): 12 µM (inactive) | GI50 (PC-3): 16.4 µM (inactive) | GI50 (RPMI-8226): 3.61 µM (inactive) | GI50 (RXF 393): 24 µM (inactive) | GI50 (SF-268): 23.4 µM (inactive) | GI50 (SF-295): 18.3 µM (inactive) | GI50 (SF-539): 19.8 µM (inactive) | GI50 (SK-MEL-28): 24.5 µM (inactive) | GI50 (SK-MEL-2): 18.9 µM (inactive) | GI50 (SK-MEL-5): 16.3 µM (inactive) | GI50 (SK-OV-3): 26.1 µM (inactive) | GI50 (SN12C): 17.4 µM (inactive) | GI50 (SNB-19): 17 µM (inactive) | GI50 (SNB-75): 25.2 µM (inactive) | GI50 (SR): 5.61 µM (inactive) | GI50 (SW-620): 12.5 µM (inactive) | GI50 (T47D): 21.9 µM (inactive) | GI50 (TK-10): 24.5 µM (inactive) | GI50 (UACC-257): 19.5 µM (inactive) | GI50 (UACC-62): 14.7 µM (inactive) | GI50 (UO-31): 11.9 µM (inactive)

CC1(C)C(/C=N\O)=[N+]([O-])C(C)(C)N1O
GI50 (786-0): > 100 µM (inactive) | GI50 (A549): > 100 µM (inactive) | GI50 (ACHN): > 100 µM (inactive) | GI50 (CAKI-1): > 100 µM (inactive) | GI50 (CCRF-CEM): 89.7 µM (inactive) | GI50 (COLO 205): > 100 µM (inactive) | GI50 (DU-145): > 100 µM (inactive) | GI50 (EKVX): > 100 µM (inactive) | GI50 (HCC 2998): > 100 µM (inactive) | GI50 (HCT-116): > 100 µM (inactive) | GI50 (HCT-15): > 100 µM | GI50 (HL-60): 31.6 µM (inactive) | GI50 (HOP-62): > 100 µM (inactive) | GI50 (HOP-92): > 100 µM (inactive) | GI50 (HT-29): 54.3 µM (inactive) | GI50 (Hs-578T): > 100 µM (inactive) | GI50 (IGROV-1): > 100 µM (inactive) | GI50 (K562): > 100 µM (inactive) | GI50 (KM12): > 100 µM (inactive) | GI50 (LOX IMVI): > 100 µM (inactive) | GI50 (M14): > 100 µM (inactive) | GI50 (MCF7): > 100 µM (inactive) | GI50 (MDA-MB-231): > 100 µM (inactive) | GI50 (MDA-MB-435): 25.2 µM (inactive) | GI50 (MDA-N): 52.7 µM (inactive) | GI50 (Malme-3M): > 100 µM (inactive) | GI50 (NCI-H226): > 100 µM (inactive) | GI50 (NCI-H23): > 100 µM (inactive) | GI50 (NCI-H460): > 100 µM (inactive) | GI50 (NCI/ADR-RES): > 100 µM (inactive) | GI50 (OVCAR-3): 49.7 µM (inactive) | GI50 (OVCAR-4): > 100 µM (inactive) | GI50 (OVCAR-5): > 100 µM (inactive) | GI50 (OVCAR-8): > 100 µM (inactive) | GI50 (PC-3): > 100 µM (inactive) | GI50 (RPMI-8226): > 100 µM (inactive) | GI50 (RXF 393): > 100 µM (inactive) | GI50 (SF-268): > 100 µM (inactive) | GI50 (SF-295): > 100 µM (inactive) | GI50 (SF-539): > 100 µM (inactive) | GI50 (SK-MEL-28): > 100 µM (inactive) | GI50 (SK-MEL-2): > 100 µM (inactive) | GI50 (SK-MEL-5): > 100 µM (inactive) | GI50 (SK-OV-3): > 100 µM (inactive) | GI50 (SN12C): > 100 µM (inactive) | GI50 (SNB-19): > 100 µM (inactive) | GI50 (SNB-75): > 100 µM (inactive) | GI50 (SR): > 100 µM (inactive) | GI50 (SW-620): > 100 µM (inactive) | GI50 (T47D): > 100 µM (inactive) | GI50 (TK-10): > 100 µM (inactive) | GI50 (U-251): > 100 µM (inactive) | GI50 (UACC-257): > 100 µM (inactive) | GI50 (UACC-62): > 100 µM (inactive) | GI50 (UO-31): > 100 µM (inactive)
